The supplement of paper PMC11061612

Columns and labels:
[1] = test system: CAS-1 (Glioblastoma); assay: Bliss excess, mean over the matrix (fraction); higher = more synergy
Procedure, shortened: (§1)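 Cell lines in DMEM/F12 or RPMI with 10% FBS were plated in 1536-well plates, held 24 hours at 37°C, 5% CO2, then given two-drug dose matrices for 72 hours (DMSO typically 0.2%). Viability was read by CellTiter-Glo 2.0 luminescence and scaled as inhibition from 0 (vehicle wells) to 1 (blank wells). Combination Emax is the second-highest inhibition in the matrix; Bliss excess is observed combination effect minus expected EA + EB − EA·EB, EA and EB being single-agent effects.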

[2] = test system: CCK-81 (Colorectal Carcinoma); assay: as above
Procedure, shortened: as §1

[3] = test system: COLO-824 (Breast Carcinoma); assay: as above
Procedure, shortened: as §1

[4] = test system: COR-L311 (Small Cell Lung Carcinoma); assay: as above
Procedure, shortened: as §1

[5] = test system: ECC10 (Gastric Carcinoma); assay: as above
Procedure, shortened: as §1

[6] = test system: FU97 (Gastric Carcinoma); assay: as above
Procedure, shortened: as §1

[7] = test system: Hs-445 (Non-Cancerous); assay: as above
Procedure, shortened: as §1

[8] = test system: KARPAS-422 (B-Cell Non-Hodgkin's Lymphoma); assay: as above
Procedure, shortened: as §1

[9] = test system: NCI-H1581 (Non-Small Cell Lung Carcinoma); assay: as above
Procedure, shortened: as §1

[10] = test system: NCI-H1666 (Lung Adenocarcinoma); assay: as above
Procedure, shortened: as §1

[11] = test system: NCI-H1693 (Lung Adenocarcinoma); assay: as above
Procedure, shortened: as §1

[12] = test system: NY (Osteosarcoma); assay: as above
Procedure, shortened: as §1

[13] = test system: ONS-76 (Other Solid Carcinomas); assay: as above
Procedure, shortened: as §1

[14] = test system: OS-RC-2 (Kidney Carcinoma); assay: as above
Procedure, shortened: as §1

[15] = test system: PA-1 (Ovarian Carcinoma); assay: as above
Procedure, shortened: as §1

[16] = test system: SISO (Cervical Carcinoma); assay: as above
Procedure, shortened: as §1

[17] = test system: U-2-OS (Osteosarcoma); assay: as above
Procedure, shortened: as §1

[18] = test system: CAS-1 (Glioblastoma); assay: combination Emax (second highest fraction inhibited in the dose matrix, 72 h); higher = more inhibition; extreme values may be limits of the assay
Procedure, shortened: as §1

[19] = test system: COLO-824 (Breast Carcinoma); assay: as above
Procedure, shortened: as §1

[20] = test system: NCI-H2141 (Small Cell Lung Carcinoma); assay: as above
Procedure, shortened: as §1
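Wherever Bliss excess, mean over the matrix is given: after 72 h of two-drug dosing.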

Structure (SMILES) | Bliss excess [1] | Bliss excess [2] | Bliss excess [3] | Bliss excess [4] | Bliss excess [5] | Bliss excess [6] | Bliss excess [7] | Bliss excess [8] | Bliss excess [9] | Bliss excess [10] | Bliss excess [11] | Bliss excess [12] | Bliss excess [13] | Bliss excess [14] | Bliss excess [15] | Bliss excess [16] | Bliss excess [17] | combination Emax [18] | combination Emax [19] | combination Emax [20]
NC1(C(=O)N[C@@H](CCO)c2ccc(Cl)cc2)CCN(c2ncnc3[nH]ccc23)CC1 [Capivasertib] + C[C@@H]1COCCN1C2=NC(=NC(=C2)C3(CC3)[S@](=N)(=O)C)C4=C5C=CNC5=NC=C4 [AZD6738] (first compound max 10 µM, 7x7, partner max 10 µM) | -0.0706 | -0.139 | -0.0655 | -0.0213 | -0.0163 | -0.0176 | -0.0531 | -0.0575 | -0.0363 | -0.0332 | -0.0526 | -0.0287 | -0.0636 | -0.0398 | -0.0938 | -0.0474 | -0.0326 | 0.735 | 0.68 | 0.557
NC1(C(=O)N[C@@H](CCO)c2ccc(Cl)cc2)CCN(c2ncnc3[nH]ccc23)CC1 [Capivasertib] + Cn1cnc2c(F)c(Nc3ccc(Br)cc3Cl)c(C(=O)NOCCO)cc21 [Selumetinib] (first compound max 10 µM, 7x7, partner max 10 µM) | -0.0798 | 0.0753 | 0.0166 | -0.0422 | 0.0563 | 0.0653 | 0.0479 | 0.0608 | 0.0371 | -0.0165 | -0.0375 | -0.0161 | 0.0914 | -0.0412 | -0.0114 | 0.0089 | 0.0009 | 0.682 | 0.595 | 0.214
Cc1nc(Nc2ncc(C(=O)Nc3c(C)cccc3Cl)s2)cc(N2CCN(CCO)CC2)n1 [Dasatinib] + CC(=O)Nc1cccc(-n2c(=O)n(C3CC3)c(=O)c3c(Nc4ccc(I)cc4F)n(C)c(=O)c(C)c32)c1 [Trametinib] (first compound max 2 µM, 7x7, partner max 1 µM) | -0.107 | -0.057 | -0.0774 | -0.0295 | -0.0334 | 0.0039 | -0.0873 | -0.0371 | -0.0416 | -0.0644 | 0.0432 | 0.034 | -0.0206 | -0.0396 | 0.013 | -0.0267 | -0.0411 | 0.946 | 0.232 | 0.129
COc1cccc2c1C(=O)c1c(O)c3c(c(O)c1C2=O)C[C@@](O)(C(=O)CO)C[C@@H]3O[C@H]1C[C@H](N)[C@H](O)[C@H](C)O1 [Doxorubicin] + Cc1cc2ncnn2cc1Nc1ncc2c(n1)n(C1CCOCC1)c(=O)n2C [AZD7648] (first compound max 1 µM, 7x7, partner max 10 µM) | 0.105 | 0.0481 | 0.0742 | 0.0893 | 0.0602 | -0.0094 | 0.102 | 0.0699 | 0.0529 | 0.0129 | 0.036 | 0.0578 | 0.0314 | -0.0114 | 0.0617 | 0.0937 | 0.0234 | 0.775 | 0.501 | 0.475
COc1cc2ncnc(Nc3ccc(F)c(Cl)c3)c2cc1OCCCN1CCOCC1 [Gefitinib] + CC(C)n1c(=O)n(C)c2cnc3cc(F)c(-c4ccc(OCCCN5CCCCC5)nc4)cc3c21 [AZD1390] (first compound max 10 µM, 7x7, partner max 0.3 µM) | -0.0603 | -0.072 | -0.0795 | -0.0545 | -0.0231 | -0.0177 | -0.0356 | -0.0363 | -0.0457 | -0.0064 | -0.04 | -0.0355 | -0.0386 | -0.0817 | -0.0949 | -0.0627 | -0.0496 | 0.134 | 0.366 | 0.0717
CS(=O)(=O)CCNCc1ccc(-c2ccc3ncnc(Nc4ccc(OCc5cccc(F)c5)c(Cl)c4)c3c2)o1 [Lapatinib] + C[C@@H](Oc1cc(-c2cnn(C3CCNCC3)c2)cnc1N)c1c(Cl)ccc(F)c1Cl [Crizotinib] (first compound max 10 µM, 7x7, partner max 10 µM) | -0.0634 | -0.0255 | 0.002 | -0.0024 | -0.0434 | -0.0144 | 0.0147 | -0.0649 | 0.0208 | -0.0698 | -0.0069 | -0.0118 | -0.0667 | -0.0186 | 0.0128 | -0.0214 | -0.0263 | 0.962 | 0.94 | 0.795
CC(=O)c1c(C)c2cnc(Nc3ccc(N4CCNCC4)cn3)nc2n(C2CCCC2)c1=O [Palbociclib] + CC1(C)CCC(CN2CCN(c3ccc(C(=O)NS(=O)(=O)c4ccc(NCC5CCOCC5)c([N+](=O)[O-])c4)c(Oc4cnc5[nH]ccc5c4)c3)CC2)=C(c2ccc(Cl)cc2)C1 [Venetoclax] (first compound max 10 µM, 7x7, partner max 1 µM) | -0.009 | -0.0761 | 0.0365 | -0.0186 | 0.0269 | -0.0281 | 0.119 | 0.0434 | -0.029 | -0.069 | 0.0079 | -0.0479 | -0.0115 | -0.0385 | 0.0133 | -0.0384 | -0.0275 | 0.274 | 0.844 | 0.196
CC(=O)c1c(C)c2cnc(Nc3ccc(N4CCNCC4)cn3)nc2n(C2CCCC2)c1=O [Palbociclib] + Cc1c2c(nn1C)CSCc1cc(n(C)n1)CSc1cc(c3ccccc3c1)OCCCc1c(C(=O)O)n(C)c3c-2c(Cl)ccc13 [AZD5991] (first compound max 10 µM, 7x7, partner max 1 µM) | 0.0001 | 0.0565 | -0.0768 | -0.0139 | 0.0435 | 0.0142 | -0.0598 | -0.0221 | -0.0173 | -0.0198 | -0.0168 | -0.0358 | -0.0372 | -0.0419 | 0.0052 | -0.0282 | -0.0224 | 0.32 | 0.708 | 0.309
CC(=O)c1c(C)c2cnc(Nc3ccc(N4CCNCC4)cn3)nc2n(C2CCCC2)c1=O [Palbociclib] + Cn1cnc2c(F)c(Nc3ccc(Br)cc3Cl)c(C(=O)NOCCO)cc21 [Selumetinib] (first compound max 10 µM, 7x7, partner max 10 µM) | -0.018 | 0.0832 | -0.0652 | -0.0334 | -0.0111 | 0.0707 | -0.0852 | 0.062 | 0.0466 | -0.0183 | -0.0306 | -0.0227 | 0.0132 | -0.0712 | -0.0312 | -0.0488 | -0.0134 | 0.289 | 0.345 | 0.139
COc1cccc(OCCCN)c1-c1cc(Nc2cnc(C#N)cn2)n[nH]1 [Prexasertib] + C=CCn1c(=O)c2cnc(Nc3ccc(N4CCN(C)CC4)cc3)nc2n1-c1cccc(C(C)(C)O)n1 [AZD1775] (first compound max 1 µM, partner max 1 µM) | -0.0363 | 0.0523 | 0.0432 | 0.0559 | 0.115 | 0.0052 | -0.0366 | 0.0841 | 0.155 | -0.0629 | -0.0139 | -0.008 | -0.0299 | -0.0531 | 0.03 | 0.0814 | 0.0506 | 0.696 | 0.861 | 0.588
COc1cccc(OCCCN)c1-c1cc(Nc2cnc(C#N)cn2)n[nH]1 [Prexasertib] + CCc1c2c(nc3ccc(O)cc13)-c1cc3c(c(=O)n1C2)COC(=O)[C@]3(O)CC [SN-38] (first compound max 1 µM, 7x7, partner max 0.3 µM) | 0.0383 | -0.0968 | 0.101 | -0.0058 | 0.0145 | -0.032 | -0.0189 | 0.0037 | 0.196 | -0.0269 | 0.0166 | -0.0647 | -0.0961 | -0.0392 | -0.0364 | 0.0277 | -0.0551 | 0.834 | 1 | 0.881
COc1cccc(OCCCN)c1-c1cc(Nc2cnc(C#N)cn2)n[nH]1 [Prexasertib] + CN(C)CCCOc1ccc(-c2ccc3ncc4c(c3c2)n(C2CCOCC2)c(=O)n4C)cn1 [AZD0156] (first compound max 1 µM, 7x7, partner max 1 µM) | -0.0336 | -0.0133 | -0.0047 | -0.0532 | 0.0071 | -0.0321 | -0.0286 | 0.0128 | 0.0112 | -0.0291 | -0.0349 | 0.0007 | -0.0148 | -0.0393 | 0.0031 | -0.0056 | 0.0176 | 0.674 | 0.785 | 0.568
COc1cccc(OCCCN)c1-c1cc(Nc2cnc(C#N)cn2)n[nH]1 [Prexasertib] + C[C@@H]1COCCN1C2=NC(=NC(=C2)C3(CC3)[S@](=N)(=O)C)C4=C5C=CNC5=NC=C4 [AZD6738] (first compound max 1 µM, 7x7, partner max 10 µM) | -0.0095 | -0.0277 | -0.0675 | -0.0363 | 0.0929 | -0.0427 | -0.0661 | -0.0734 | 0.0436 | 0.0338 | 0.0816 | -0.0031 | -0.0803 | 0.0743 | -0.0438 | 0.0309 | -0.0426 | 0.652 | 0.796 | 0.573
COc1cccc(OCCCN)c1-c1cc(Nc2cnc(C#N)cn2)n[nH]1 [Prexasertib] + Cc1cc2ncnn2cc1Nc1ncc2c(n1)n(C1CCOCC1)c(=O)n2C [AZD7648] (first compound max 1 µM, 7x7, partner max 10 µM) | -0.0053 | -0.0134 | -0.01 | -0.0289 | 0.006 | -0.0265 | -0.02 | -0.0787 | 0.022 | -0.0176 | 0.0337 | -0.0328 | -0.031 | -0.0226 | 0.0205 | 0.0136 | -0.0223 | 0.71 | 0.783 | 0.57
COc1cccc(OCCCN)c1-c1cc(Nc2cnc(C#N)cn2)n[nH]1 [Prexasertib] + O=C(c1cc(Cc2n[nH]c(=O)c3ccccc23)ccc1F)N1CCN(C(=O)C2CC2)CC1 [Olaparib] (first compound max 1 µM, 7x7, partner max 10 µM) | -0.0979 | -0.12 | -0.0481 | -0.101 | -0.0685 | -0.0288 | -0.0358 | -0.044 | 0.0257 | -0.0096 | -0.1 | -0.0128 | -0.123 | -0.0181 | 0.0083 | 0.0003 | -0.0478 | 0.588 | 0.77 | 0.617
